# Laboratory results reported in USRE36520E, “HMG-CoA reductase inhibitors” (Merck & Co., Inc., priority 1998, dated 2000).
# Tested on: HMG-CoA reductase
# Assay: HMG-CoA reductase inhibition assay (in vitro protocol of J. Med. Chem., 28, 347-358)
# Format: biochemical
# Conditions: relative to compactin arbitrarily assigned a value of 100; IC50 compared with that of compactin determined simultaneously; tested as sodium salt of dihydroxy acid form; enzyme solubilized from rat liver microsomes
# Method: The intrinsic HMG-CoA reductase inhibition activity of the claimed compounds is measured in the in vitro protocol published in J. Med. Chem., 28, p. 347-358 (1985) and described below: Male Holtzman Sprague-Dawley rats (225-250 g) were kept on reversed lighting and fed Purina rat chow containing 3% cholestyramine for 7 days preceding their sacrifice by CO2 asphyxiation. Livers were removed 6 hours into the dark cycle and used immediately to prepare microsomes. HMG-CoA reductase was solubilized from the freshly prepared microsomes by the method of Heller and Shrewsbury [J. Biol. Chem., 1976, 251, 3815] and purified through the second ammonium sulfate precipitation step as described by Kleinsek et al. [Proc. Natl. Acad. Sci. USA, 1977, 74, 1431]. […] The enzyme preparation was stored at -80° C. The assay is essentially the procedure of Shefer et al. [J. Lipid Res., 1972, 13, 402]. The complete assay medium contained the following in a total volume of 0.8 ml: phosphate buffer, pH 7.2, 100 mM; MgCl2, 3 mM; NADP, 3 mM; glucose-6-phosphate, 10 mM; glucose-6-phosphate dehydro-genase, 3 enzyme units; reduced glutathione, 50 mM; HMG-CoA (qlutaryl-3-^14 C, New England Nuclear), 0.2 mM (0.1 μCi); and partially purified enzyme stock solution, 100 μL. […] After a 40-minute incubation at 37° C. with shaking and exposure to air, the reaction was stopped by the addition of 0.4 mL of 8N HCl. After an additional 30-minute incubation period at 37° C. to ensure the complete lactonization of mevalonic acid to mevalonolactone, 0.2 ml of the mixture was added to an 0.5×5.0 cm column containing 100-200 mesh Bio-Rex 5, chloride form (Bio-Rad), wetted with distilled water, as described by Alberts et al. [Proc. Natl. Acad. Sci. U.S.A., 1980, 77, 3967]. The unreacted [^14 C]HMG-CoA was absorbed on the resin and the [^14 C]mevalonolactone was eluted with distilled water (2×1 ml) directly into 7-ml scintillation vials. Five milliliters of Aquasol-2 (New England Nuclear) was added to each vial, and radioactivity was measured in a Packard Tri Carb Prias scintillation counter. IC50 values were determined by plotting percentage inhibition against test compound concentration and fitting a straight line to the resulting data by using the least-squares method.
# Chain of HMG-CoA reductase (P51639 425-887 limits assumed): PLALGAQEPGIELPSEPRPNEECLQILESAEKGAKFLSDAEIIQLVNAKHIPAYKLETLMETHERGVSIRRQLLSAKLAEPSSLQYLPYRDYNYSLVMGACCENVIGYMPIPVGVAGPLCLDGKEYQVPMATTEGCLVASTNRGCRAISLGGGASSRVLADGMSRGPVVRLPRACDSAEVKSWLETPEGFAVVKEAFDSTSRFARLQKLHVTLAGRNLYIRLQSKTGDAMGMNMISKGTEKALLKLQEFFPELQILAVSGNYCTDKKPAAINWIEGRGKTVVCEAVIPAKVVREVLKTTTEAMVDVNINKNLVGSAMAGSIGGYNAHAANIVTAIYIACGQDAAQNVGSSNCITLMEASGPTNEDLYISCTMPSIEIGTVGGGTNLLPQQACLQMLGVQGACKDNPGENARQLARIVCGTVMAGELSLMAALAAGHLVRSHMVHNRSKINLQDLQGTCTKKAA
row,Compound,Relative Potency
1,"6(R)-[2-[8(S)-(2,2-Dimethylbutyryloxy)-2(S)-methyl-6(S)-(N,N-dimethyl)aminocarbonyl-1,2,3,4,4a(S),5,6,7,8,8a(S)-decahydronaphthyl-1(S)]-ethyl]-4(R)-hydroxy-3,4,5,6-tetrahydro-2H-pyran-2-one [-- -- -- S CONMe2 1,1-dimethylpropyl]",75
2,"6(R)-[2-[8(S)-(2,2-Dimethylbutyryloxy)-2(S)-methyl-6(S)-(α-hydroxybenzyl)-1,2,3,4,4a(S),5,6,7,8,8a-(S)-decahydronaphthyl-1(S)]ethyl]-4(R)-hydroxy-3,4,5,6-tetrahydro-2H-pyran-2-one [-- -- -- S CHOHPH 1,1-dimethylpropyl]",220
3,"6(R)-[2-[8(S)-(2,2-Dimethylbutyryloxy)-2(S)-methyl-6(S)-carboxy-1,2,3,4,4a(S),5,6,7,8,8a(S)-decahydronaphthyl-1(S)]-ethyl]-4(R)-hydroxy-3,4,5,6-tetrahydro-2H-pyran-2-one [-- -- -- S CO2 H 1,1-dimethylpropyl]",79
4,"6(R)-[2-[8(S)-(2,2-Dimethylbutyryloxy)-6(R)-(2,2-dimethylbutyryloxymethyl)-2(S)-methyl-1,2,3,4,6,7,8,8a(R)-octahydronaphthyl-1(S)]-ethyl]-4(R)-hydroxy-3,4,5,6-tetrahydro-2H-pyran-2-one",33
5,"6(R)-[2-[8(S)-(2,2-Dimethylbutyryloxy)-6(R)-carboxy-2(S)-methyl-1,2,6,7,8,8a(R)-hexahydronaphthyl-1(S)]ethyl]-4(R)-hydroxy-3,4,5,6-tetrahydro-2H-pyran-2-one [db -- db R CO2 H 1,1-dimethylpropyl]",94
6,"6(R)-[2-[8(S)-(2,2-Dimethylbutyryloxy)-6(S)-carboxy-2(S)-methyl-1,2,6,7,8,8a(R)-hexahydronaphthyl-1(S)]ethyl]-4(R)-hydroxy-3,4,5,6-tetrahydro-2H-pyran-2-one [db -- db S CO2 H 1,1-dimethylpropyl]",99
7,"6(R)-[2-[8(S)-(2,2-Dimethylbutyryloxy)-6(S)-hydroxymethyl-2(S)-methyl-1,2,6,7,8,8a(R)-hexahydronaphthyl-1(S)]ethyl]-4(R)-hydroxy-3,4,5,6-tetrahydro-2H-pyran-2-one [db -- db S CH2 OH 1,1-dimethylpropyl]",189
8,"6(R)-[2-[8(S)-(2,2-dimethylbutyryloxy)-2(S)-methyl-6(R)-(1-hydroxyethyl)-1,2,3,4,4a(S),5,6,7,8,8a(S)-decahydronaphthyl-1(S)]ethyl]-4(R)-hydroxy-3,4,5,6-tetrahydro-2H-pyran-2-one [-- -- -- R CHOHCH3 (ISOMER A) 1,1-dimethylpropyl]",111
9,"6(R)-[2-[8(S)-(2,2-dimethylbutyryloxy)-2(S)-methyl-6(R)-(1-hydroxyethyl)-1,2,3,4,4a(S),5,6,7,8,8a(S)-decahydronaphthyl-1(S)]ethyl]-4(R)-hydroxy-3,4,5,6-tetrahydro-2H-pyran-2-one [-- -- -- R CHOHCH3 (ISOMER B) 1,1-dimethylpropyl]",104
10,"6(R)-[2-[8(S)-(2,2-dimethylbutyryloxy)-2(S)-methyl-6(S)-(1-hydroxyethyl)-1,2,3,4,4a,(S),5,6,7,8,8a(R)-decahydronaphthyl-1(S)]ethyl]-4(R)-hydroxy-3,4,5,6-tetrahydro-2H-pyran-2-one [-- -- -- S CHOHCH3 (ISOMER A) 1,1-dimethylpropyl]",131
11,"6(R)-[2-[8(S)-(2,2-dimethylbutyryloxy)-2(S)-methyl-6(S)-(2,2-dimethylbutyryloxymethyl)-1,2,3,4,4a(S),5,6,7,8,8a(S)-decahydronaphthyl-1(S)]ethyl]-4(R)-hydroxy-3,4,5,6-tetrahydro-2H-pyran-2-one",100
12,"6(R)-[2-[8(S)-(2,2-dimethylbutyryloxy)-6(S)-(N,N-diethyl)aminocarbonyl-2(S)-methyl-1,2,6,7,8,8a(R)-hexahydronaphthyl-1(S)]ethyl]-4(R)-hydroxy-3,4,5,6-tetrahydro-2H-pyran-2-one [db -- db S CONEt2 1,1-dimethylpropyl]",65
13,"6(R)-[2-[8(S)-(2-methylbutyryloxy)-2(S)-methyl-6(R)-(hydroxymethyl)-1,2,6,7,8,8a(R)-hexahydronaphthyl-1(S)]ethyl]-4(R)-hydroxy-3,4,5,6-tetrahydro-2H- pyran-2-one [db -- db R CH2 OH sec-butyl]",47

# The next lines start with the values.
row,Relative Potency,Compound
1,107,"6(R)-[2-[8(S)-(2,2-Dimethylbutyryloxy)-2(S)-methyl-6(S)-aminocarbonyl-1,2,3,4,4a(S),5,6,7,8,8a(S)-decahydronaphthyl-1(S)]ethyl]-4(R)-hydroxy-3,4,5,6- tetrahydro-2H-pyran-2-one [-- -- -- S CONH2 1,1-dimethylpropyl]"
2,125,"6(R)-[2-[8(S)-(2,2-Dimethylbutyryloxy)-2(S)-methyl-6(S)-ethoxycarbonyl-1,2,3,4,4a(S),5,6,7,8,8a(S)-decahydronaphthyl-1(S)]ethyl]-4(R)-hydroxy-3,4,5,6-tetrahydro-2H-pyran-2-one [-- -- -- S CO2 Et 1,1-dimethylpropyl]"
3,80,"6(R)-[2-[8(S)-(2,2-Dimethylbutyryloxy)-2(S)-methyl-6(S)-isopropoxycarbonyl-1,2,3,4,4a(S),5,6,7,8,8a(S)-decahydronaphthyl-1(S)]ethyl]-4(R)-hydroxy-3,4,5,6-tetrahydro-2H-pyran-2-one [-- -- -- S CO2-i-Pr 1,1-dimethylpropyl]"
4,213,"6(R)-[2-[8(S)-(2,2-Dimethylbutyryloxy)-6(R)-hydroxymethyl-2(S)methyl-1,2,3,4,6,7,8,8a(R)-octahydronaphthyl-1(S)]ethyl]-4(R)-hydroxy-3,4,5,6-tetrahydro-2H-pyran-2-one [db -- -- R CH2 OH 1,1-dimethylpropyl]"
5,82,"6(R)-[2-[8(S)-(2,2-Dimethylbutyryloxy)-6(S)-(N,N-dimethyl)aminocarbonyl-2(S)methyl-1,2,6,7,8,8a(R)-hexahydronaphthyl-1(S)]ethyl]-4(R)-hydroxy-3,4,5,6-tetrahydro-2H-pyran-2-one [db -- db S CONMe2 1,1-dimethylpropyl]"
6,113,"6(R)-[2-[8(S)-(2,2-dimethylbutyryloxy)-2(S)-methyl-6(S)-(1-hydroxyethyl)-1,2,3,4,4a,(S),5,6,7,8,8a(R)-decahydronaphthyl-1(S)]ethyl]-4(R)-hydroxy-3,4,5,6-tetrahydro-2H-pyran-2-one [-- -- -- S CHOHCH3 (ISOMER B) 1,1-dimethylpropyl]"
7,86,"6(R)-[2-[8(S)-(2,2-dimethylbutyryloxy)-2(S)-methyl-6(S)-hydroxymethyl-1,2,3,4,4a(S),5,6,7,8,8a(S)-decahydronaphthyl-1(S)]ethyl]-4(R)-hydroxy-3,4,5,6- tetrahydro-2H-pyran-2-one [-- -- -- S CH2 OH 1,1-dimethylpropyl]"
8,26,"6(R)-[2-[8(S)-(2-methylbutyryloxy)-6(S)-carboxy-2(S)-methyl-1,2,6,7,8,8a(R)-hexahydronaphthyl-1(S)]ethyl]-4(R)-hydroxy-3,4,5,6-tetrahydro-2H-pyran-2- one [db -- db S CO2 H sec-butyl]"
9,33,"6(R)-[2-[8(S)-(Cyclohexylcarbonyloxy)-6(S)-hydroxymethyl-2(S)-methyl-1,2,3,4,4a(S),5,6,7,8,8a(S)-decahydronaphthyl-1(S)]ethyl]-4(R)-hydroxy-3,4,5,6-tetrahydro-2H-pyran-2-one [-- -- -- S CH2 OH cyclohexyl]"

# Tested on: not listed separately
# Assay: Stability of the free dihydroxy acid on standing
# Format: physicochemical
# Conditions: dihydroxy acid can be maintained by increasing the pH above 7.0
# Method: The sodium salt of the compound II from Example 64 is dissolved in 2 ml of ethanol-water (1:1; v:v) and added to 10 ml of 1N hydrochloric acid from which the dihydroxy acid is extracted with ethyl acetate. The organic extract is washed once with water, dried (Na2 SO4), and evaporated in vacuo with a bath temperature not exceeding 30° C. […] The dihydroxy acid can be maintained by increasing the pH above 7.0.
row,Compound,reversion of dihydroxy acid to parent lactone
1,CCC(C)(C)C(=O)O[C@H]1C[C@@H](CO)C[C@@H]2CC[C@H](C)[C@H](CC[C@@H](O)C[C@@H](O)CC(=O)O)[C@H]21 [Example 70],"slowly reverts to the corresponding,parent lactone on standing"
